Experimental data taken from patent US20240132473A1, “SULFOXIMIDE SUBSTITUTED INDAZOLE IRAK4 KINASE INHIBITOR, PREPARATION METHOD THEREOF AND USE THEREOF” (Shanghai Xunhe Pharmaceutical Technology Co. Ltd., priority 2021, published 2024).

Legend:
[1] = tested on: TNF-α secretion in THP-1 cells; experiment: Inhibition of LPS-stimulated TNF-α secretion in THP-1 cells (ELISA); format: cell-based; details: Homo sapiens, LPS 1 μg/mL, 4.5 hours
Protocol: TNF-α is a key cytokine involved in the inflammatory process of the listed autoimmune disease, such as rheumatoid arthritis, psoriatic arthritis, ankylosing spondylitis, psoriasis, Crohn's disease, ulcerative colitis, etc. In this test, TNF-α secretion was triggered by incubation with bacterial lipopolysaccharides (LPS). […] The 96-well plate was rotated at 2000 rpm for 5 minutes, and then 50 μL of supernatant was taken. The content of TNF-α in the supernatant was determined by human ELISA kit, and IC50 value of the compound was calculated by XL-Fit (table 4).

in vivo [2] = details: rat, po; for half-life: SD, in vivo; for AUC(0-t) / Cmax / Tmax: plasma, 25 mg/kg
Protocol: SD rats were used as the test animals.
Standard curve and preparation and processing of quality control samples:
Stock solution was diluted with 50% acetonitrile-water to obtain standard working solutions of 0.04, 0.10, 0.20, 0.40, 1.00, 2.00, 4.00 μg/mL, and quality control working solutions of 0.10, 1.00, 3.00 μg/mL. […] 200 μL of acetonitrile (containing 5 ng/mL of the internal standard loratadine) was added. After the vortex oscillation for 3 minutes, the solutions were centrifuged at 15000 rpm at 4° C. for 15 minutes. 100 μL of the supernatant was taken for LC-MS/MS analysis. WinNonlin ® 8.0 was used to calculate the experimental results.

IRAK4 kinase = IRAK4 kinase (Homo sapiens (Human), UniProt Q9NWZ3); experiment: IRAK4 kinase inhibitory activity assay (mobility shift assay, Km ATP); format: biochemical; details: MSA, ATP 37 μM (Km ATP)
Sequence of IRAK4 kinase (Q9NWZ3 whole entry): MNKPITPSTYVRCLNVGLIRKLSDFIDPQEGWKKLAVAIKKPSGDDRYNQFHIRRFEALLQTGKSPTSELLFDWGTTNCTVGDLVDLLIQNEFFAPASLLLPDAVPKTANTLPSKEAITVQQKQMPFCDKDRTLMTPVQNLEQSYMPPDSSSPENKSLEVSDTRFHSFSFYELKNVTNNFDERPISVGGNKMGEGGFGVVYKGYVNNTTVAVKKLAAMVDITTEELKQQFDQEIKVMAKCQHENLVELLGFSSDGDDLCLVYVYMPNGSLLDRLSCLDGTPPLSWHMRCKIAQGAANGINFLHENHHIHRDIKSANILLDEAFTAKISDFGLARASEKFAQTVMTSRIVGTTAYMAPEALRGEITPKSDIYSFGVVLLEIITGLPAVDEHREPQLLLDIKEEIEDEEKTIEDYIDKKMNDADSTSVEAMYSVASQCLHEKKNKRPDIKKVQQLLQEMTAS
Protocol: The inhibitory activity (IC50) of the compound on IRAK4 kinase under Km ATP was detected by mobility shift assay (MSA). Ten drug concentration gradients were set (initial concentration 1 μM, 3-fold dilution, 2 duplicate wells per concentration). […] After incubation at 28° C. for a period of time, 10 μL of termination buffer was added to terminate the reaction. The conversion rate data was read with Caliper, and then the conversion rate was converted into inhibition rate data. According to the inhibition rate data of each concentration, the IC50 of half inhibitory concentration was calculated by Logit method (Table 3).

hERG potassium channel = hERG potassium channel (Homo sapiens (Human), UniProt Q12809); experiment: cell-based; details: human
Sequence of hERG potassium channel (Q12809 whole entry): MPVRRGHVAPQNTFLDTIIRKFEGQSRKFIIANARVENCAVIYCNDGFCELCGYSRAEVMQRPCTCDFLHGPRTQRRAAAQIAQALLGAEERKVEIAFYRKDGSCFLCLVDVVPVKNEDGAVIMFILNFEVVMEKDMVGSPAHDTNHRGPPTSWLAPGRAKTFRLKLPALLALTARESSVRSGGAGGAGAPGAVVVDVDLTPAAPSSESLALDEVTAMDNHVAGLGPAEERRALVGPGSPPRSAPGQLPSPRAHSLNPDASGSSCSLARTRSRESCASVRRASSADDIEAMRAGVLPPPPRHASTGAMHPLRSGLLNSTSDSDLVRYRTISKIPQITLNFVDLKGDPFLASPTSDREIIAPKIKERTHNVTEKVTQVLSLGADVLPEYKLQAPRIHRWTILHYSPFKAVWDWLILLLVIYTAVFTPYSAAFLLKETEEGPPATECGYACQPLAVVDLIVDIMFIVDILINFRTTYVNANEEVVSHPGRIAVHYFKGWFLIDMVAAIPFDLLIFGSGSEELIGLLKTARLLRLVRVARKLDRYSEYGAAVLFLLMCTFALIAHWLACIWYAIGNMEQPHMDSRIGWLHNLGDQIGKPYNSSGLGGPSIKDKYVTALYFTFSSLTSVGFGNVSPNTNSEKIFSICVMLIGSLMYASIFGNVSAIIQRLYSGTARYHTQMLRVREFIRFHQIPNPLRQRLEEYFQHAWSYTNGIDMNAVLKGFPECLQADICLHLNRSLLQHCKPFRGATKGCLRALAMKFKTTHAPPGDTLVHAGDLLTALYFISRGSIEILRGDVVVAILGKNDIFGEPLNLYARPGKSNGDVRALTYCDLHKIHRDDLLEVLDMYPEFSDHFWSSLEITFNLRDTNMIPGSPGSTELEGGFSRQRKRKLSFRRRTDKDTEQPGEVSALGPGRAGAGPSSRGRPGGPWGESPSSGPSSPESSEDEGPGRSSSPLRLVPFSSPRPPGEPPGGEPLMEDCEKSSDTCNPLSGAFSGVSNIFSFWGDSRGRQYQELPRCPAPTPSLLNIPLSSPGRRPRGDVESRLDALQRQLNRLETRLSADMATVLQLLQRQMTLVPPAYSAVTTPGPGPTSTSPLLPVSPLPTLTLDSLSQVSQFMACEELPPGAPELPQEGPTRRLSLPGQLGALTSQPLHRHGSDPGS
Description: The rapid activation of delayed rectifier outward potassium current (IKr) in humans is mainly mediated by hERG ion channel and participates in human myocardial cell repolarization. Drug blockade of this current will lead to the appearance of QT interval prolongation syndrome in clinical practice, which can easily induce acute arrhythmia and even sudden death.

in vivo [3] = details: ICR, mouse, po
Protocol: On the day of administration, observations were made approximately 0.5, 1, 2, 4, and 6 hours after the first administration. During day 2 to day 6 of the observation period, observations were made twice a day, once in the morning and once in the afternoon.
Observations included but not limited to: general conditions, behavioral activities, gait and posture, eyes, mouth, nose, gastrointestinal tract, skin hair and urogenital tract.
Weight data were expressed as mean ±standard deviation. Levene's test and one-way analysis of variance were used for comparison between groups. If there was a difference, Dunnet t test was then used.
The maximum tolerated dose refers to the dose administered when the animal was dying.

Row | SMILES | IC50 [1] [nM] | half-life (in vivo [2]) [h] | AUC(0-t) (in vivo [2]) [ng·h/mL] | Cmax (in vivo [2]) [ng/mL] | Tmax (in vivo [2]) [h] | IC50 (IRAK4 kinase) [nM] | Inhibition rate (%) of hERG current (hERG potassium channel; 5 μM) [%] | Inhibition rate (%) of hERG current (hERG potassium channel; 50 μM) [%] | Inhibition rate (%) of hERG current (hERG potassium channel; 500 μM) [%] | MTD at 6 days (in vivo [3]) [mg/kg]
1 | Cc1cc(-c2nc(C(=O)Nc3cc4cn(CCS(=N)(=O)c5ccnc6ccccc56)nc4cc3C(C)(C)O)co2)ccn1 (centres unmarked) [Compound I-29] | 0.9 | 5.8 | 8130 | 1370 | 5.9 | 0.6 | -3.9 | 1.2 | 13.9 | > 2000
2 | CC(C)(O)c1cc2nn(CCS(=N)(=O)c3ccnc4ccccc34)cc2cc1NC(=O)c1cccc(C(F)(F)F)n1 (centres unmarked) [Compound I-10] | 1 | 4.7 | 9000 | 1510 | 6.3 | 1.1 | 0.1 | 0.9 | 20.3 | > 2000
3 | CC(C)(O)c1cc2nn(CCS(=N)(=O)c3ccccc3)cc2cc1NC(=O)c1cccc(C(F)(F)F)n1 (centres unmarked) [Compound I-2] | 0.3 | 5.5 | 8100 | 1580 | 6.5 | 0.5 | -0.5 | 0.7 | 12.3 | > 2000
4 | COc1cc2nn(CCS(=N)(=O)c3ccncc3)cc2cc1NC(=O)c1cccc(C(F)(F)F)n1 (centres unmarked) [Compound I-5] | 0.7 | 5.1 | 8280 | 1400 | 6.2 | 0.4 | 0.0 | -1.0 | 13.4 | > 2000
5 | COc1cc2nn(CCS(=N)(=O)c3ccccc3)cc2cc1NC(=O)c1cccc(C(F)(F)F)n1 (centres unmarked) [Compound I-1] | 0.5 | 5 | 8330 | 1600 | 6.2 | 0.3 | -1.0 | 2.3 | 15.6 | > 2000
